One assay addresses activated ERK2 (Homo sapiens (Human), UniProt P28482). The assay is described as follows: Activated ERK2 kinase assay (AlphaScreen, ERKtide peptide phosphorylation). The class given is biochemical. The note with it: […] ERK2, 200 nM ERKtide peptide, 35 μM ATP, 30 min preincubation; read-out: ERK2 IC50. The source says: Production of Activated ERK2 Protein:
Activated ERK2 protein was generated in insect cells by co-expression with a constitutively active form of MEK1. The ERK2 protein was expressed and purified as a nHis-PreScission-ERK2 tagged protein and then proteolytically processed to the full-length wild-type protein. […] Double-phosphorylated ERK2 protein was purified from the mixture by mono-Q column separation.
Activated ERK2 Kinase Assay:
A 16-point, half-log dilution series of compounds at 41× final concentration was used for generating IC50 curves. Compound dilution series were prepared in 100% DMSO. ERK2 was preincubated with compounds for 30 minutes at ambient temperature. Reaction was initiated by addition of a substrate cocktail of ERKtide peptide and ATP and was allowed to proceed for 2-3 hours at ambient temperature. Reaction was terminated by addition of 10 μL of a 2× stop buffer consisting of 100 mM Tris-Cl [pH 7.5], 25 mM EDTA, 0.01% Tween 20, 10 μg/mL of AlphaScreen Protein A Acceptor Beads, 10 μg/mL of Streptavidin Donor Beads (PerkinElmer, Waltham, Mass.), and 1.4 μg/mL phospho-EGF Receptor (Thr669) antibody (Cat #3056, Cell Signaling Technology, Danvers, Mass.). Terminated reactions were read, after overnight incubation in the dark, on an EnVision Multilabel Plate Reader (PerkinElmer, Waltham, Mass.), with excitation and emission wavelengths set to 680 nm and 570 nm, respectively. IC50 values were determined using a four-parameter fit.
Chain of activated ERK2 (P28482 whole entry): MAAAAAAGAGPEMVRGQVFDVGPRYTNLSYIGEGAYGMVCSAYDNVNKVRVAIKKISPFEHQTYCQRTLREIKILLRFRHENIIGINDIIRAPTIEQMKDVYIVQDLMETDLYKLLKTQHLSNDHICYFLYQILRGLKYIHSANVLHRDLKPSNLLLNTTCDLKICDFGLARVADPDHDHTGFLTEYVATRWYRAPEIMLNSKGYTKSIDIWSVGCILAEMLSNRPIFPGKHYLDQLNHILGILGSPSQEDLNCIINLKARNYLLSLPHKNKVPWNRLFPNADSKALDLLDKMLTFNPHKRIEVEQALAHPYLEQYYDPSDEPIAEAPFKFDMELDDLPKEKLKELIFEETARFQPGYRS
As for `CC1(C)c2cnc(NC3CCOCC3)nc2CN1C(=O)N[C@H](CO)c1ccccc1` [compound 1, (S)-N-(2-hydroxy-1-phenylethyl)-5,5-dimethyl-2-((tetrahydro-2H-pyran-4-yl)amino)-5H-pyrrolo[3,4-d]pyrimidine-6(7H)-carboxamide], the IC50 came to 14 nM.
Same read-out and setting: then `CC1(C)c2cnc(NC3CCOCC3)nc2CN1C(=O)N[C@H](CO)c1cccc(Cl)c1` [compound 2, (S)-N-(1-(3-chlorophenyl)-2-hydroxyethyl)-5,5-dimethyl-2-((tetrahydro-2H-pyran-4-yl)amino)-5H-pyrrolo[3,4-d]pyrimidine-6(7H)-carboxamide], with 4 nM; and `CC1(C)c2cnc(NC3CCOCC3)nc2CN1C(=O)NCc1cccnc1` [compound 3, 5,5-dimethyl-N-(pyridin-3-ylmethyl)-2-((tetrahydro-2H-pyran-4-yl)amino)-5H-pyrrolo[3,4-d]pyrimidine-6(7H)-carboxamide], with 894 nM; and `CC1(C)c2cnc(NC3CCOCC3)nc2CN1C(=O)NCc1cccc(S(C)(=O)=O)c1` [compound 4, 5,5-dimethyl-N-(3-(methylsulfonyl)benzyl)-2-((tetrahydro-2H-pyran-4-yl)amino)-5H-pyrrolo[3,4-d]pyrimidine-6(7H)-carboxamide], with 18 nM.
Regarding `CC1(C)c2cnc(NC3CCOCC3)nc2CN1C(=O)N[C@H]1CCCN(Cc2ccccc2F)C1` [compound 5, (S)-N-(1-(2-fluorobenzyl)piperidin-3-yl)-5,5-dimethyl-2-((tetrahydro-2H-pyran-4-yl)amino)-5H-pyrrolo[3,4-d]pyrimidine-6(7H)-carboxamide], the IC50 is 15500 nM.
The same measure, in the same setting: then `CC1(C)c2cnc(NC3CCOCC3)nc2CN1C(=O)N[C@H]1CCCNC1` [compound 6, (S)-5,5-dimethyl-N-(piperidin-3-yl)-2-((tetrahydro-2H-pyran-4-yl)amino)-5H-pyrrolo[3,4-d]pyrimidine-6(7H)-carboxamide], with 2340 nM; and `CC1(C)c2cnc(NC3CCOCC3)nc2CN1C(=O)N[C@@H]1CCCNC1` [compound 7, (R)-5,5-dimethyl-N-(piperidin-3-yl)-2-((tetrahydro-2H-pyran-4-yl)amino)-5H-pyrrolo[3,4-d]pyrimidine-6(7H)-carboxamide], with 15300 nM; and `CC1(C)c2cnc(NC3CCOCC3)nc2CN1C(=O)N[C@@H]1CCCN(Cc2ccccc2F)C1` [compound 8, (R)-N-(1-(2-fluorobenzyl)piperidin-3-yl)-5,5-dimethyl-2-((tetrahydro-2H-pyran-4-yl)amino)-5H-pyrrolo[3,4-d]pyrimidine-6(7H)-carboxamide], with 82 nM.
On the same count and under the same terms, the value for `CC1(C)c2cnc(NC3CCOCC3)nc2CN1C(=O)N[C@@H]1CC1c1ccccc1` (stereo partly drawn) [compound 9, 5,5-dimethyl-N-((1R)-2-phenylcyclopropyl)-2-((tetrahydro-2H-pyran-4-yl)amino)-5H-pyrrolo[3,4-d]pyrimidine-6(7H)-carboxamide] was 23 nM; that for `CC1(C)c2cnc(NC3CCS(=O)(=O)CC3)nc2CN1C(=O)N[C@H](CO)c1ccccc1` [compound 10, (S)-2-((1,1-dioxidotetrahydro-2H-thiopyran-4-yl)amino)-N-(2-hydroxy-1-phenylethyl)-5,5-dimethyl-5H-pyrrolo[3,4-d]pyrimidine-6(7H)-carboxamide] was 722 nM.
For the compound `CC1(C)c2cnc(NC3CCC(F)(F)CC3)nc2CN1C(=O)N[C@H](CO)c1ccccc1` [compound 11, (S)-2-((4,4-difluorocyclohexyl)amino)-N-(2-hydroxy-1-phenylethyl)-5,5-dimethyl-5H-pyrrolo[3,4-d]pyrimidine-6(7H)-carboxamide], the 50% inhibitory concentration (IC50) was determined as 146 nM.
For `CC1(C)c2cnc(NC3CCOC3)nc2CN1C(=O)N[C@H](CO)c1ccccc1` (stereo partly drawn) [compound 12, N-((S)-2-hydroxy-1-phenylethyl)-5,5-dimethyl-2-((tetrahydrofuran-3-yl)amino)-5H-pyrrolo[3,4-d]pyrimidine-6(7H)-carboxamide], the half-maximal inhibitory concentration (IC50) was 375 nM.
Still for that read-out and setting: the value for `CC1(C)c2cnc(NC3CCOCC3)nc2CN1C(=O)NCc1cc(F)cc(Cl)c1` [compound 13, N-(3-chloro-5-fluorobenzyl)-5,5-dimethyl-2-((tetrahydro-2H-pyran-4-yl)amino)-5H-pyrrolo[3,4-d]pyrimidine-6(7H)-carboxamide] was 8 nM.
The same measure, in the same setting: then `CC1(C)c2cnc(NC3CCOCC3)nc2CN1C(=O)NCC1CCCCO1` (centres unmarked) [compound 14, 5,5-dimethyl-N-((tetrahydro-2H-pyran-2-yl)methyl)-2-((tetrahydro-2H-pyran-4-yl)amino)-5H-pyrrolo[3,4-d]pyrimidine-6(7H)-carboxamide], with 328 nM; and `CC1(C)c2cnc(NC3CCOCC3)nc2CN1C(=O)NCC1CCCOC1` (centres unmarked) [compound 15, 5,5-dimethyl-N-((tetrahydro-2H-pyran-3-yl)methyl)-2-((tetrahydro-2H-pyran-4-yl)amino)-5H-pyrrolo[3,4-d]pyrimidine-6(7H)-carboxamide], with 842 nM.
The same measure, in the same setting: then `CC1(C)c2cnc(NC3CCOCC3)nc2CN1C(=O)NCC1CCOCC1` [compound 16, 5,5-dimethyl-2-((tetrahydro-2H-pyran-4-yl)amino)-N-((tetrahydro-2H-pyran-4-yl)methyl)-5H-pyrrolo[3,4-d]pyrimidine-6(7H)-carboxamide], with 362 nM; and `CC1(C)c2cnc(NC3CCOCC3)nc2CN1C(=O)N[C@H](CO)C1CCCCC1` [compound 17, (S)-N-(1-cyclohexyl-2-hydroxyethyl)-5,5-dimethyl-2-((tetrahydro-2H-pyran-4-yl)amino)-5H-pyrrolo[3,4-d]pyrimidine-6(7H)-carboxamide], with 67 nM; and `CC1(C)c2cnc(NC3CCOCC3)nc2CN1C(=O)NC1CCOCC1` [compound 18, 5,5-dimethyl-N-(tetrahydro-2H-pyran-4-yl)-2-((tetrahydro-2H-pyran-4-yl)amino)-5H-pyrrolo[3,4-d]pyrimidine-6(7H)-carboxamide], with 2390 nM.
Take `CC1(C)c2cnc(NC3CCOCC3)nc2CN1C(=O)NCc1cc(F)cc(F)c1` [compound 19, N-(3,5-difluorobenzyl)-5,5-dimethyl-2-((tetrahydro-2H-pyran-4-yl)amino)-5H-pyrrolo[3,4-d]pyrimidine-6(7H)-carboxamide]: the IC50 is 21 nM.
Same read-out and setting: the value for `CC1(C)c2cnc(NC3CCOCC3)nc2CN1C(=O)NCc1cccc(F)c1` [compound 20, N-(3-fluorobenzyl)-5,5-dimethyl-2-((tetrahydro-2H-pyran-4-yl)amino)-5H-pyrrolo[3,4-d]pyrimidine-6(7H)-carboxamide] was 16 nM; that for `CC1(C)c2cnc(NC3CCOCC3)nc2CN1C(=O)NCc1cccc(Cl)c1` [compound 21, N-(3-chlorobenzyl)-5,5-dimethyl-2-((tetrahydro-2H-pyran-4-yl)amino)-5H-pyrrolo[3,4-d]pyrimidine-6(7H)-carboxamide] was 6 nM; that for `C[C@@H](NC(=O)N1Cc2nc(NC3CCOCC3)ncc2C1(C)C)c1cccc(Cl)c1` [compound 22, (R)-N-(1-(3-chlorophenyl)ethyl)-5,5-dimethyl-2-((tetrahydro-2H-pyran-4-yl)amino)-5H-pyrrolo[3,4-d]pyrimidine-6(7H)-carboxamide] was 2 nM.
Same read-out and setting: the value for `CC1(C)c2cnc(NC3CCOCC3)nc2CN1C(=O)NCc1ccc(F)cc1` [compound 24, N-(4-fluorobenzyl)-5,5-dimethyl-2-((tetrahydro-2H-pyran-4-yl)amino)-5H-pyrrolo[3,4-d]pyrimidine-6(7H)-carboxamide] was 22 nM; that for `CC1(C)c2cnc(NC3CCCOC3)nc2CN1C(=O)N[C@H](CO)c1ccccc1` (stereo partly drawn) [compound 25, N-((S)-2-hydroxy-1-phenylethyl)-5,5-dimethyl-2-((tetrahydro-2H-pyran-3-yl)amino)-5H-pyrrolo[3,4-d]pyrimidine-6(7H)-carboxamide] was 193 nM; that for `CC1(C)c2cnc(NC3CCOCC3)nc2CN1C(=O)NC(c1ccccc1)C(F)(F)F` (centres unmarked) [compound 26, 5,5-dimethyl-2-((tetrahydro-2H-pyran-4-yl)amino)-N-(2,2,2-trifluoro-1-phenylethyl)-5H-pyrrolo[3,4-d]pyrimidine-6(7H)-carboxamide] was 125 nM.
Same read-out and setting: the value for `CN(Cc1ccccc1)C(=O)N1Cc2nc(NC3CCOCC3)ncc2C1(C)C` [compound 27, N-benzyl-N,5,5-trimethyl-2-((tetrahydro-2H-pyran-4-yl)amino)-5H-pyrrolo[3,4-d]pyrimidine-6(7H)-carboxamide] was 202 nM.
Consider `CC1(C)c2cnc(NC3CCOCC3)nc2CN1C(=O)NCc1ccc(Cl)cc1` [compound 28, N-(4-chlorobenzyl)-5,5-dimethyl-2-((tetrahydro-2H-pyran-4-yl)amino)-5H-pyrrolo[3,4-d]pyrimidine-6(7H)-carboxamide], for which the IC50 is 10 nM.
On the same count and under the same terms, then `CC1(C)c2cnc(NC3CCOCC3)nc2CN1C(=O)NCc1ccccc1Cl` [compound 29, N-(2-chlorobenzyl)-5,5-dimethyl-2-((tetrahydro-2H-pyran-4-yl)amino)-5H-pyrrolo[3,4-d]pyrimidine-6(7H)-carboxamide], with 159 nM.

The assay is the same for the next values; noted with them: comparative example text; read-out: IC50 on ERK2.
For `C[C@@H](NC(=O)N1Cc2cnc(NC3CCOCC3)nc2C1)c1ccccc1` [Comparative Example, reference compound], the 50% inhibitory concentration (IC50) stood at 360 nM.

Source of the values: patent US9546173B2 (Novartis AG, priority 2012, dated 2017).
